The values below come from US6476027B1, “N-hydroxy 4-sulfonyl butanamide compounds” (Monsanto Company, priority 1997, dated 2002).

Where a name gives a salt, the structure may show the parent alone.

In one data set the target is T1, recombinant human MMP-13 (Homo sapiens, UniProt P45452).
T1 construct: made in house
The experiment in a line: In vitro metalloprotease inhibition, fluorogenic MCA peptide substrate. It is filed as biochemical. The note with it: room temperature, pH 7.5, 4 μM substrate, APMA-activated enzyme. Here is the method:
(§1) Briefly, 4-aminophenylmercuric acetate (APMA) or trypsin activated MMPs were incubated with various concentrations of the inhibitor compound at room temperature for 5 minutes.
(§2) More specifically, recombinant human MMP-13 and MMP-1 enzymes were prepared in laboratories of the assignee. MMP-13 was expressed in baculovirus as a proenzyme, and purified first over a heparin agarose column and then over a chelating zinc chloride column. The proenzyme was activated by APMA for use in the assay. MMP-1 expressed in transfected HT-1080 cells was provided by Dr. Howard Welgus of Washington University, St. Louis, Mo. The enzyme was also activated using APMA and was then purified over a hydroxamic acid column.
(§3) MCA-ProLeuGlyLeuDpaAlaArgNH^2, wherein MCA is methoxycoumarin and Dpa is 3-(2,4-dinitrophenyl)-L-2,3-diaminopropionyl alanine.
(§4) The buffer used for assays contained 100 mM Tris-HCl, 100 mM NaCl, 10 mM CaCl2 and 0.05 percent polyethyleneglycol (23) lauryl ether at a pH value of 7.5.

A further data set addresses T2, MMP-2 (Homo sapiens, UniProt P08253).
T2 sequence (P08253 110-660): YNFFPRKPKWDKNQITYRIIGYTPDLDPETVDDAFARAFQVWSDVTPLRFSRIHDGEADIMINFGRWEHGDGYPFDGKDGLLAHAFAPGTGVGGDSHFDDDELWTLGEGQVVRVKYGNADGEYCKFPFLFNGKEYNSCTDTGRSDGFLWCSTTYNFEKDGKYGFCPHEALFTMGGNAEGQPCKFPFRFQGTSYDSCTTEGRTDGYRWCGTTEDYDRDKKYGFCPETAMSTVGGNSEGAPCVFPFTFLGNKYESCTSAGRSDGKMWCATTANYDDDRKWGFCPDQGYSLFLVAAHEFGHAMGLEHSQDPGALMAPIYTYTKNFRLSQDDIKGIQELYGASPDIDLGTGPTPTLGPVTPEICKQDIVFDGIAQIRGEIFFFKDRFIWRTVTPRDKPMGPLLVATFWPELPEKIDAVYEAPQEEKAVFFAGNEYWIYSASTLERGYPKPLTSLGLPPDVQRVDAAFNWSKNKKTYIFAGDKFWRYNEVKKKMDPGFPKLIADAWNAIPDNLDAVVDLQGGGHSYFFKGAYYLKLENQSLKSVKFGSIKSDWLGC
Described as above. It is filed as biochemical. As to conditions: room temperature, pH 7.5, 4 μM substrate. How it is done:
as §1, §3, §4

For another data set, the target named is T3, recombinant human MMP-1 (Homo sapiens, UniProt P03956).
T3 construct: made in house; host or cells: transfected HT-1080 cells (provided by Dr. Howard Welgus, Washington University)
T3 sequence (P03956 100-469): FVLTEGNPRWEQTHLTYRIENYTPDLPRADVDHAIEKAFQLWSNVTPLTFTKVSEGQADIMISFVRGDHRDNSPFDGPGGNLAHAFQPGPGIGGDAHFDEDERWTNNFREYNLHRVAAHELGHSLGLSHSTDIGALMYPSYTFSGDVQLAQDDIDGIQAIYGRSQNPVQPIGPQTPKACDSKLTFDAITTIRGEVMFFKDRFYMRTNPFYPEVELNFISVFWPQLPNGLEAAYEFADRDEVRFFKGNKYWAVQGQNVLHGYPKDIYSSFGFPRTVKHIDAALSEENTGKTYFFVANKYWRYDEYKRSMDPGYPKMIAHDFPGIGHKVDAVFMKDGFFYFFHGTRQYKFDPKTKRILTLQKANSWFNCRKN
The data set is described as above. As to conditions: room temperature, pH 7.5, 4 μM substrate, APMA-activated enzyme. It is filed as biochemical. How it is done:
as §1, §2, §3, §4

The test system of data set [1] is advanced, rapidly progressive, treatment-refractory solid tumor cancers. As to conditions: cited from earlier work.

By IC50 is commonly meant the concentration needed to halve the response being measured. For the molecule `COc1ccc(S(=O)(=O)CCCC(=O)NO)cc1` [Example 6], the IC50 at recombinant human MMP-13 is 2000 nM.
As for `CC(C)(CS(=O)(=O)c1ccc(Oc2ccccc2)cc1)[C@H](OCc1ccccn1)C(=O)NO` [Example 10], the IC50 at recombinant human MMP-13 is 2.4 nM; against MMP-2 it was 1.5 nM.
Consider `CC(C)(CS(=O)(=O)c1ccc(Oc2ccccc2)cc1)[C@H](OCc1ccncc1)C(=O)NO` [Example 9a, (S)-N-Hydroxy-3,3-dimethyl-4-[(4-phenoxyphenyl)sulfonyl]-2-(4-pyridinylmethoxy)butanamide], for which the IC50 stood at 7000 nM on recombinant human MMP-1, 3 nM at recombinant human MMP-13 and 1.3 nM on MMP-2.
Take `CNC(=O)[C@@H](NC(=O)[C@H](CC(C)C)[C@H](O)C(=O)NO)C(C)(C)C` [marimastat, Marimastat]: in data set [1] (Phase I/II, colorectal, pancreatic, ovarian, prostate cancers), the “effect on cancer-specific antigens used as surrogate markers for biological activity” value was “dose-related reduction in the rise of cancer-specific antigens”. Moreover, in data set [1] (clinical trials, patients with advanced solid tumor cancers), the “most common drug-related toxicity” value is “musculoskeletal pain and stiffness”.
Regarding `Cc1ccc(Oc2ccc(S(=O)(=O)CCC(O)C(=O)NO)cc2)cc1C` (racemic) [Example 7], the half-maximal inhibitory concentration (IC50) is more than 10000 nM at recombinant human MMP-1, 400 nM on recombinant human MMP-13 and 120 nM at MMP-2.
Take `CC(C)(C)OC(=O)N1CCC(CCS(=O)(=O)c2ccc(Oc3ccccc3)cc2)(C(=O)NO)CC1` [Example 16]: the IC50 at recombinant human MMP-1 is more than 10000 nM; on recombinant human MMP-13 it was 400 nM; on MMP-2 it was 169 nM.
Turning to `CC(C)(C)OC(=O)N[C@H](C(=O)NO)C(C)(C)CS(=O)(=O)c1ccc(Oc2ccccc2)cc1` [Example 11], the IC50 at recombinant human MMP-1 was 50 nM; on recombinant human MMP-13, less than 0.1 nM; on MMP-2, less than 0.1 nM.
Take `CC(C)(CCS(=O)(=O)c1ccc(Oc2ccccc2)cc1)C(=O)NO` [Example 3]: the IC50 on recombinant human MMP-1 was more than 10000 nM; on recombinant human MMP-13, 2600 nM; against MMP-2, 1000 nM.
In the case of `O=C(NO)C1(CCS(=O)(=O)c2ccc(Oc3ccccc3)cc2)CCNCC1` [Example 17], the IC50 at recombinant human MMP-1 was more than 10000 nM; on recombinant human MMP-13 it was 169 nM; on MMP-2 it was 70 nM.
The like results for `CC(C)(CS(=O)(=O)c1ccc(Oc2ccccc2)cc1)[C@H](NC(=O)CN1CCCC1)C(=O)NO` [Example 14] were, in that order, more than 10000 nM, 2.4 nM and 1.8 nM.
Taken in the same sequence, the figures for `CC(C)(CS(=O)(=O)c1ccc(Oc2ccccc2)cc1)[C@@H](O)C(=O)NO` [Example 2] were more than 10000 nM, 8.8 nM and 2 nM.
Taken in the same sequence, the figures for `CC(C)(CS(=O)(=O)c1ccc(Oc2ccccc2)cc1)[C@H](N)C(=O)NO` [Example 12] were 3300 nM, 1.6 nM and 0.3 nM.
Take `CC(C)(CS(=O)(=O)c1ccc(Oc2ccccc2)cc1)[C@H](NC(=O)CN1CCOCC1)C(=O)NO` [Example 13]: the 50% inhibitory concentration (IC50) at recombinant human MMP-1 was determined as 770 nM; at recombinant human MMP-13, 1.4 nM; against MMP-2, 0.3 nM.
The like results for `CC(C)(CS(=O)(=O)c1ccc(Oc2ccccc2)cc1)[C@H](NC(=O)CN1CCOCC1)C(=O)NO` [Example 13a, (S)-N-[1-[(Hydroxyamino)carbonyl]-2,2-dimethyl-3-[(4-phenoxyphenyl)sulfonyl]-propyl]-4-morpholineacetamide Monohydrochloride] were, in that order, 1800 nM, 1.8 nM and 0.6 nM.
Take `CC(CCS(=O)(=O)c1ccc(Oc2ccccc2)cc1)C(=O)NO` (centres unmarked) [Example 5]: the figures for the IC50 on recombinant human MMP-1, at recombinant human MMP-13 and at MMP-2 were more than 10000 nM, 1.8 nM and 3.2 nM, respectively.
The like results for `O=C(NO)C(O)CCS(=O)(=O)c1ccc(Oc2ccccc2)cc1` (centres unmarked) [Example 4] were, in that order, more than 10000 nM, 54.4 nM and 15.8 nM.
The like results for `CC(C)(CS(=O)(=O)c1ccc(Oc2ccccc2)cc1)[C@H](OCc1cccnc1)C(=O)NO` [Example 8a, (S)-N-Hydroxy-3,3-dimethyl-4-[(4-phenoxyphenyl)sulfonyl]-2-(3-pyridinylmethoxy)butanamide] were, in that order, more than 10000 nM, 5 nM and 2.2 nM.
The like results for `O=C(NO)C(CCS(=O)(=O)c1ccc(Oc2ccccc2)cc1)N1CCCCC1` (centres unmarked) [Example 15] were, in that order, more than 10000 nM, 13.9 nM and 7.7 nM.
On to `CC(C)(CS(=O)(=O)c1ccc(Oc2ccccc2)cc1)[C@H](O)C(=O)NO` [Example 1], for which the figures for the IC50 on recombinant human MMP-1, on recombinant human MMP-13 and against MMP-2 were 6300 nM, 1.9 nM and 0.3 nM, respectively.
